Holding throughout (assay): NCI anticancer screen, dose series, 48 h
Assay [1] has as its system HOP-92 NSCLC.
For assay [2], the system named is DU-145 prostate.
Assay [3] deals with NCI/ADR-RES ovarian.
Assay [4] concerns SR leukemia.
Assay [5] relates to SF-268 CNS.
Assay [6] concerns SN12C renal.
Assay [7] has as its system NCI-H460 lung.
Assay [8] deals with CCRF-CEM leukemia.
Assay [9] concerns HT29 colon.
In assay [10] the test system is NCI-H23 lung.

Molecules are shown by their SMILES.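 Protocol summary: plate cells (96-well), add compound at 5 concentrations, incubate 48 h, interpolate endpoints linearly. GI50 is the concentration that inhibits growth by half. At the TGI there is no net growth.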

`Cc1cccnc1CNC1CC(NCc2ncccc2C)CC(NCc2ncccc2C)C1` (centres undefined): the GI50 in assay [1] is 1100 nM; in assay [2] it was 1880 nM; in assay [3] it was 19300 nM; in [4], 406 nM; in assay [5], 1990 nM; in [6], 1610 nM. The GI50 is 2410 nM in [7], 2180 nM in [8], 3360 nM in assay [9] and 2800 nM in [10]. The TGI in assay [1] was 2300 nM; in assay [2], 3580 nM; in assay [3] it was above 100000 nM; in [4] it was 2090 nM; in [5], 4050 nM; in [6], 3110 nM. In addition, the TGI in assay [7] was 6030 nM; in assay [8], 4710 nM; in assay [9], above 39300 nM; in assay [10] it was 6820 nM.

Take `O=C(NO)c1cnc(N2CCN(S(=O)(=O)c3ccc4ccccc4c3)CC2)nc1`: the GI50 was 20.2 nM in assay [1]; 44.5 nM in assay [2]; 32.4 nM in assay [3]; 38.7 nM in [4]; 169 nM in [5]; 198 nM in assay [6]. Moreover, the GI50 in [7] was 53.5 nM; in assay [8], 37.9 nM; in [9] it was 34.4 nM; in [10], 103 nM. In addition, the TGI is 85.7 nM in [1]; 2230 nM in assay [2]; above 90700 nM in [4]; 1300 nM in assay [5]; 13200 nM in [6]; 11900 nM in assay [7]. Also, the TGI in [8] was above 64700 nM; in [9], 2110 nM; in assay [10], 897 nM.

Turning to `ClC1=C(Cl)C(Cl)=C(Cl)C1=Cc1ccc(Cl)cc1`, the GI50 was 1530 nM in assay [1]; 629 nM in [2]; 366 nM in assay [3]; 253 nM in [4]; 419 nM in assay [5]; 375 nM in assay [6]. Besides, the GI50 was 726 nM in assay [7], 330 nM in assay [8], 270 nM in assay [9] and 796 nM in assay [10]. The TGI in assay [1] came to 3840 nM; in assay [2], 2070 nM; in [3], 2150 nM; in assay [4], 1720 nM; in [5], 1100 nM; in assay [6], 1820 nM. Moreover, the TGI in assay [7] is 2180 nM; in [8] it was 2470 nM; in assay [9], 735 nM; in assay [10], 2850 nM.

As for `COc1ccc(-n2sc(=O)n(Cc3ccc(COC(=O)C(C)c4ccc(CC(C)C)cc4)cc3)c2=O)cc1` (centres undefined), the GI50 in assay [1] is 1010 nM; in assay [2], 1850 nM; in assay [3], 7500 nM; in assay [4], 1460 nM; in assay [5] it was 5820 nM; in assay [6] it was 2830 nM. Also, the GI50 is 5410 nM in [7], 567 nM in assay [8], 2120 nM in assay [9] and 5720 nM in assay [10]. In addition, the TGI in [1] came out at 3140 nM; in assay [2] it was 6340 nM; in assay [3] it was 20000 nM; in [4] it was 50000 nM; in assay [5] it was 12200 nM; in assay [6], 9490 nM. The TGI in [7] came out at 12500 nM; in assay [8] it was 3740 nM; in [9], 16100 nM; in assay [10], 14100 nM.

With `CC[C@H](C)[C@H](NC(=O)C12CC(NC(C)=O)(C1)C2)C(=O)N(C)[C@H](C[C@@H](OC(C)=O)c1nc(C(=O)N[C@@H](Cc2ccccc2)C[C@H](C)C(=O)OC)cs1)C(C)C`, the GI50 in assay [1] was above 11800 nM; in [2] it was 136 nM; in assay [3], above 16700 nM; in [4], 33.6 nM; in [5], 809 nM; in assay [6], 937 nM. The GI50 in [7] is 320 nM; in assay [8], 273 nM; in [9], 73.1 nM; in assay [10] it was 650 nM. The TGI in [1] is above 16700 nM; in [2], above 10700 nM; in assay [3], above 16700 nM; in [4], above 16700 nM; in assay [5], above 16700 nM; in assay [6] it was above 16700 nM. Also, the TGI is above 16700 nM in [7], above 16700 nM in assay [8], above 5520 nM in [9] and above 16700 nM in assay [10].

For the compound `CCN1C(=O)N(CC)C2C1NN=c1s/c(=C\c3ccccc3)c(=O)n12` (centres undefined), the GI50 in [1] was 29700 nM; in assay [2], 308 nM; in assay [3] it was 79.9 nM; in assay [4], 53.1 nM; in assay [5] it was 771 nM; in assay [6] it was 511 nM. For the same compound, the GI50 was 210 nM in [7], 232 nM in assay [8], 98.9 nM in [9] and 544 nM in [10]. In addition, the TGI in assay [1] was above 100000 nM; in assay [2], above 100000 nM; in assay [3], above 100000 nM; in assay [4], above 49200 nM; in [5], above 100000 nM; in assay [6], above 100000 nM. In addition, the TGI in [7] was above 100000 nM; in assay [8] it was above 100000 nM; in assay [9], above 42200 nM; in assay [10] it was above 100000 nM.

Consider `O=C1c2cccc3cc([N+](=O)[O-])cc(c23)C(=O)N1O`, for which the TGI in assay [1], in [2], in assay [3], in assay [4], in assay [5] and in assay [6] was above 100000 nM in each case. The TGI in [7], in assay [8], in assay [9] and in assay [10] was above 100000 nM each time.

On to `CN1CCN(c2ccc3nc4c(nc3c2C(F)(F)F)C(=O)c2ncccc2C4=O)CC1`, for which the GI50 in assay [1] was 2490 nM; in assay [2] it was 1230 nM; in [3], 2330 nM; in assay [4], 446 nM; in [5], 1660 nM; in [6], 1440 nM. Moreover, the GI50 in assay [7] is 273 nM; in [8], 2440 nM; in assay [9], 2320 nM; in assay [10], 365 nM. Further, the TGI is 5650 nM in assay [1]; 2600 nM in assay [2]; 6940 nM in assay [3]; above 100000 nM in [4]; 4130 nM in [5]; 2910 nM in [6]. Besides, the TGI in assay [7] worked out at 1320 nM; in [8], 7320 nM; in assay [9], 6180 nM; in [10], 1910 nM.

In the case of `COc1cc2c3c(c1O)C1(C=CC(=O)C=C1)CC3N(C)CC2` (centres undefined), the TGI in [1] worked out at 24000 nM; in assay [2], 26000 nM; in [3], 11000 nM; in assay [4] it was 25800 nM; in assay [5], 34600 nM; in [6] it was 30200 nM. For the same compound, the TGI in assay [7] amounted to 18300 nM; in [8], 13800 nM; in assay [9] it was 23400 nM; in assay [10], 31500 nM.

As to `O=C(Nc1ccc(S(=O)(=O)NC2CCCCCC2)cc1)C(c1ccccc1)S(=O)(=O)c1ccc(F)cc1` (centres undefined), the GI50 was 845 nM in assay [1]; 261 nM in assay [2]; 1240 nM in [3]; 410 nM in assay [4]; 933 nM in assay [5]; 371 nM in assay [6]. For the same compound, the GI50 was 36.7 nM in assay [7], 577 nM in assay [8], 214 nM in assay [9] and 187 nM in assay [10]. The TGI came to 3900 nM in assay [1]; 2680 nM in [2]; 4660 nM in [3]; 4420 nM in assay [4]; 6110 nM in assay [5]; 1810 nM in assay [6]. The TGI in [7] was 1100 nM; in assay [8], above 100000 nM; in [9], 1560 nM; in [10], 933 nM.

For the compound `C[C@@H]1CN2[C@H]3[C@@H]1CC[C@]31CCC(=O)O[C@]1(C)[C@@H]1CC[C@H]3CCC=C3[C@@H]12`, the GI50 in [1] was 38400 nM; in assay [2], above 70000 nM; in assay [3], above 70000 nM; in [4], above 70000 nM; in assay [5], above 70000 nM; in assay [6], above 70000 nM. Moreover, the GI50 in [7], in assay [8], in assay [9] and in assay [10] was above 70000 nM throughout. For the same compound, the TGI in assay [1], in assay [2], in assay [3], in assay [4], in assay [5] and in assay [6] was above 70000 nM in each case. Besides, the TGI in [7], in assay [8], in assay [9] and in assay [10] was above 70000 nM in each case.

For the origin of these results see PubChem BioAssay (NCI).
